According to the supplement of paper PMC4862054:

The compounds below were run on CAL-120 (assay: drug sensitivity score (DSS), CellTiter-Glo (DSS (AUC-based score)); higher = stronger drug effect (viability inhibition or cytotoxicity); extreme values may be limits of the assay). Settings: incubation time: 72 h.
Summary of the method: (§1)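 Compound was dispensed into 384-well plates at 5 concentrations in 10-fold steps spanning a 10,000-fold range chosen for each compound, and 20 µl of breast cancer cell suspension was added before 72 h of incubation. CellTox Green fluorescence was read at 485/520 nm, followed by CellTiter-Glo luminescence after 10 min at room temperature. Values on each plate were normalised to 0.1 % DMSO and a positive kill control. The drug sensitivity score came from the area under the fitted dose-response curve.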

Row | SMILES | drug sensitivity score
1 | Oc1nc(-c2ccc(C(F)(F)F)cc2)nc2c1CSCC2 [XAV-939] | 0
2 | NC(=O)Nc1cc(-c2cccc(F)c2)sc1C(=O)N[C@H]1CCCNC1 [AZD7762] | 2.9
3 | N.N.[Cl][Pt][Cl] [Cisplatin] | 0
4 | CN[C@@H]1C[C@H]2O[C@@](C)([C@@H]1OC)n1c3ccccc3c3c4c(c5c6ccccc6n2c5c31)C(=O)N[C@H]4O [UCN-01] | 24.9
5 | C[C@@H](Oc1cc(-c2cnn(C3CCNCC3)c2)cnc1N)c1c(Cl)ccc(F)c1Cl [Crizotinib] | 0
6 | CC1(C)NC(=O)N(c2ccc([N+](=O)[O-])c(C(F)(F)F)c2)C1=O [Nilutamide] | 0
7 | CNCc1ccc(-c2[nH]c3cc(F)cc4c3c2CCNC4=O)cc1 [Rucaparib] | 0
8 | C[C@]12CC[C@@H]3c4ccc(O)cc4C[C@@H](CCCCCCCCC[S+]([O-])CCCC(F)(F)C(F)(F)F)[C@H]3[C@@H]1CC[C@@H]2O (some centres undefined) [Fulvestrant] | 0
9 | CC(C)Cn1cnc2c(N)nc3ccccc3c21 [Imiquimod] | 0
10 | C#Cc1cccc(Nc2ncnc3cc(OCCOC)c(OCCOC)cc23)c1 [Erlotinib] | 0.577
11 | O=P1(NCCCl)OCCCN1CCCl (centres undefined) [Ifosfamide] | 0
12 | Cn1c(Nc2ccc(C(F)(F)F)cc2)nc2cc(Oc3ccnc(-c4ncc(C(F)(F)F)[nH]4)c3)ccc21 [RAF265] | 3.6
13 | Cc1ccc(C(=O)N(CCCN)[C@@H](c2oc3cc(Cl)ccc3c(=O)c2Cc2ccccc2)C(C)C)cc1 | 0
14 | Cn1c(CCCC(=O)O)nc2cc(N(CCCl)CCCl)ccc21 [Bendamustine] | 0
15 | O=C1CCC(N2C(=O)c3ccccc3C2=O)C(=O)N1 (centres undefined) [Thalidomide] | 0
16 | O=C(O)c1ccc(-c2c[nH]c3ncc(-c4ccccc4)cc23)cc1C1CCCC1 | 0
17 | C=C(c1ccc(C(=O)O)cc1)c1cc2c(cc1C)C(C)(C)CCC2(C)C [Bexarotene] | 0

What follows are compounds tested on MDA-MB-468 in the same assay as above. Settings: incubation time: 72 h.
Summary of the method: as §1

Row | SMILES | drug sensitivity score
18 | Oc1nc(-c2ccc(C(F)(F)F)cc2)nc2c1CSCC2 [XAV-939] | 0.9
19 | NC(=O)Nc1cc(-c2cccc(F)c2)sc1C(=O)N[C@H]1CCCNC1 [AZD7762] | 1.93
20 | N.N.[Cl][Pt][Cl] [Cisplatin] | 0
21 | CN[C@@H]1C[C@H]2O[C@@](C)([C@@H]1OC)n1c3ccccc3c3c4c(c5c6ccccc6n2c5c31)C(=O)N[C@H]4O [UCN-01] | 23.7
22 | C[C@@H](Oc1cc(-c2cnn(C3CCNCC3)c2)cnc1N)c1c(Cl)ccc(F)c1Cl [Crizotinib] | 0.0242
23 | CC1(C)NC(=O)N(c2ccc([N+](=O)[O-])c(C(F)(F)F)c2)C1=O [Nilutamide] | 0
24 | CNCc1ccc(-c2[nH]c3cc(F)cc4c3c2CCNC4=O)cc1 [Rucaparib] | 2.43
25 | C[C@]12CC[C@@H]3c4ccc(O)cc4C[C@@H](CCCCCCCCC[S+]([O-])CCCC(F)(F)C(F)(F)F)[C@H]3[C@@H]1CC[C@@H]2O (some centres undefined) [Fulvestrant] | 0
26 | CC(C)Cn1cnc2c(N)nc3ccccc3c21 [Imiquimod] | 0
27 | C#Cc1cccc(Nc2ncnc3cc(OCCOC)c(OCCOC)cc23)c1 [Erlotinib] | 0
28 | O=P1(NCCCl)OCCCN1CCCl (centres undefined) [Ifosfamide] | 0
29 | Cn1c(Nc2ccc(C(F)(F)F)cc2)nc2cc(Oc3ccnc(-c4ncc(C(F)(F)F)[nH]4)c3)ccc21 [RAF265] | 4.79
30 | Cc1ccc(C(=O)N(CCCN)[C@@H](c2oc3cc(Cl)ccc3c(=O)c2Cc2ccccc2)C(C)C)cc1 | 0
31 | Cn1c(CCCC(=O)O)nc2cc(N(CCCl)CCCl)ccc21 [Bendamustine] | 0
32 | O=C1CCC(N2C(=O)c3ccccc3C2=O)C(=O)N1 (centres undefined) [Thalidomide] | 0
33 | O=C(O)c1ccc(-c2c[nH]c3ncc(-c4ccccc4)cc23)cc1C1CCCC1 | 0
34 | C=C(c1ccc(C(=O)O)cc1)c1cc2c(cc1C)C(C)(C)CCC2(C)C [Bexarotene] | 0

The compounds below were run on MDA-MB-453 in the same assay as above. Settings: incubation time: 72 h.
Summary of the method: as §1

Row | SMILES | drug sensitivity score
35 | Oc1nc(-c2ccc(C(F)(F)F)cc2)nc2c1CSCC2 [XAV-939] | 0.956
36 | NC(=O)Nc1cc(-c2cccc(F)c2)sc1C(=O)N[C@H]1CCCNC1 [AZD7762] | 5.03
37 | N.N.[Cl][Pt][Cl] [Cisplatin] | 0
38 | CN[C@@H]1C[C@H]2O[C@@](C)([C@@H]1OC)n1c3ccccc3c3c4c(c5c6ccccc6n2c5c31)C(=O)N[C@H]4O [UCN-01] | 17.3
39 | C[C@@H](Oc1cc(-c2cnn(C3CCNCC3)c2)cnc1N)c1c(Cl)ccc(F)c1Cl [Crizotinib] | 0
40 | CC1(C)NC(=O)N(c2ccc([N+](=O)[O-])c(C(F)(F)F)c2)C1=O [Nilutamide] | 0
41 | CNCc1ccc(-c2[nH]c3cc(F)cc4c3c2CCNC4=O)cc1 [Rucaparib] | 0
42 | C[C@]12CC[C@@H]3c4ccc(O)cc4C[C@@H](CCCCCCCCC[S+]([O-])CCCC(F)(F)C(F)(F)F)[C@H]3[C@@H]1CC[C@@H]2O (some centres undefined) [Fulvestrant] | 0
43 | CC(C)Cn1cnc2c(N)nc3ccccc3c21 [Imiquimod] | 0
44 | C#Cc1cccc(Nc2ncnc3cc(OCCOC)c(OCCOC)cc23)c1 [Erlotinib] | 0
45 | O=P1(NCCCl)OCCCN1CCCl (centres undefined) [Ifosfamide] | 0
46 | Cn1c(Nc2ccc(C(F)(F)F)cc2)nc2cc(Oc3ccnc(-c4ncc(C(F)(F)F)[nH]4)c3)ccc21 [RAF265] | 0
47 | Cc1ccc(C(=O)N(CCCN)[C@@H](c2oc3cc(Cl)ccc3c(=O)c2Cc2ccccc2)C(C)C)cc1 | 0
48 | Cn1c(CCCC(=O)O)nc2cc(N(CCCl)CCCl)ccc21 [Bendamustine] | 0
49 | O=C1CCC(N2C(=O)c3ccccc3C2=O)C(=O)N1 (centres undefined) [Thalidomide] | 0
50 | O=C(O)c1ccc(-c2c[nH]c3ncc(-c4ccccc4)cc23)cc1C1CCCC1 | 0
51 | C=C(c1ccc(C(=O)O)cc1)c1cc2c(cc1C)C(C)(C)CCC2(C)C [Bexarotene] | 0

The compounds below were run on CAL-85-1 in the same assay as above. Settings: incubation time: 72 h.
Summary of the method: as §1

Row | SMILES | drug sensitivity score
52 | Oc1nc(-c2ccc(C(F)(F)F)cc2)nc2c1CSCC2 [XAV-939] | 0
53 | NC(=O)Nc1cc(-c2cccc(F)c2)sc1C(=O)N[C@H]1CCCNC1 [AZD7762] | 9.45
54 | N.N.[Cl][Pt][Cl] [Cisplatin] | 0
55 | CN[C@@H]1C[C@H]2O[C@@](C)([C@@H]1OC)n1c3ccccc3c3c4c(c5c6ccccc6n2c5c31)C(=O)N[C@H]4O [UCN-01] | 22.6
56 | C[C@@H](Oc1cc(-c2cnn(C3CCNCC3)c2)cnc1N)c1c(Cl)ccc(F)c1Cl [Crizotinib] | 0
57 | CC1(C)NC(=O)N(c2ccc([N+](=O)[O-])c(C(F)(F)F)c2)C1=O [Nilutamide] | 0
58 | CNCc1ccc(-c2[nH]c3cc(F)cc4c3c2CCNC4=O)cc1 [Rucaparib] | 0
59 | C[C@]12CC[C@@H]3c4ccc(O)cc4C[C@@H](CCCCCCCCC[S+]([O-])CCCC(F)(F)C(F)(F)F)[C@H]3[C@@H]1CC[C@@H]2O (some centres undefined) [Fulvestrant] | 0
60 | CC(C)Cn1cnc2c(N)nc3ccccc3c21 [Imiquimod] | 0
61 | C#Cc1cccc(Nc2ncnc3cc(OCCOC)c(OCCOC)cc23)c1 [Erlotinib] | 7.99
62 | O=P1(NCCCl)OCCCN1CCCl (centres undefined) [Ifosfamide] | 0
63 | Cn1c(Nc2ccc(C(F)(F)F)cc2)nc2cc(Oc3ccnc(-c4ncc(C(F)(F)F)[nH]4)c3)ccc21 [RAF265] | 1.63
64 | Cc1ccc(C(=O)N(CCCN)[C@@H](c2oc3cc(Cl)ccc3c(=O)c2Cc2ccccc2)C(C)C)cc1 | 0
65 | Cn1c(CCCC(=O)O)nc2cc(N(CCCl)CCCl)ccc21 [Bendamustine] | 0
66 | O=C1CCC(N2C(=O)c3ccccc3C2=O)C(=O)N1 (centres undefined) [Thalidomide] | 0
67 | O=C(O)c1ccc(-c2c[nH]c3ncc(-c4ccccc4)cc23)cc1C1CCCC1 | 0
68 | C=C(c1ccc(C(=O)O)cc1)c1cc2c(cc1C)C(C)(C)CCC2(C)C [Bexarotene] | 0

What follows are compounds tested on MDA-MB-231 in the same assay as above. Settings: incubation time: 72 h.
Summary of the method: as §1

Row | SMILES | drug sensitivity score
69 | Oc1nc(-c2ccc(C(F)(F)F)cc2)nc2c1CSCC2 [XAV-939] | 2.7
70 | NC(=O)Nc1cc(-c2cccc(F)c2)sc1C(=O)N[C@H]1CCCNC1 [AZD7762] | 5.67
71 | N.N.[Cl][Pt][Cl] [Cisplatin] | 0
72 | CN[C@@H]1C[C@H]2O[C@@](C)([C@@H]1OC)n1c3ccccc3c3c4c(c5c6ccccc6n2c5c31)C(=O)N[C@H]4O [UCN-01] | 28.1
73 | C[C@@H](Oc1cc(-c2cnn(C3CCNCC3)c2)cnc1N)c1c(Cl)ccc(F)c1Cl [Crizotinib] | 0
74 | CC1(C)NC(=O)N(c2ccc([N+](=O)[O-])c(C(F)(F)F)c2)C1=O [Nilutamide] | 0
75 | CNCc1ccc(-c2[nH]c3cc(F)cc4c3c2CCNC4=O)cc1 [Rucaparib] | 0
76 | C[C@]12CC[C@@H]3c4ccc(O)cc4C[C@@H](CCCCCCCCC[S+]([O-])CCCC(F)(F)C(F)(F)F)[C@H]3[C@@H]1CC[C@@H]2O (some centres undefined) [Fulvestrant] | 0
77 | CC(C)Cn1cnc2c(N)nc3ccccc3c21 [Imiquimod] | 0
78 | C#Cc1cccc(Nc2ncnc3cc(OCCOC)c(OCCOC)cc23)c1 [Erlotinib] | 0
79 | O=P1(NCCCl)OCCCN1CCCl (centres undefined) [Ifosfamide] | 0
80 | Cn1c(Nc2ccc(C(F)(F)F)cc2)nc2cc(Oc3ccnc(-c4ncc(C(F)(F)F)[nH]4)c3)ccc21 [RAF265] | 0
81 | Cc1ccc(C(=O)N(CCCN)[C@@H](c2oc3cc(Cl)ccc3c(=O)c2Cc2ccccc2)C(C)C)cc1 | 0
82 | Cn1c(CCCC(=O)O)nc2cc(N(CCCl)CCCl)ccc21 [Bendamustine] | 0
83 | O=C1CCC(N2C(=O)c3ccccc3C2=O)C(=O)N1 (centres undefined) [Thalidomide] | 0
84 | O=C(O)c1ccc(-c2c[nH]c3ncc(-c4ccccc4)cc23)cc1C1CCCC1 | 0
85 | C=C(c1ccc(C(=O)O)cc1)c1cc2c(cc1C)C(C)(C)CCC2(C)C [Bexarotene] | 0

Each compound was assayed on CAL-120 (assay: drug sensitivity score (DSS), CellTox Green (DSS (AUC-based score)); higher = stronger drug effect (viability inhibition or cytotoxicity); extreme values may be limits of the assay). Settings: incubation time: 72 h.
Summary of the method: as §1

Row | SMILES | drug sensitivity score
86 | Oc1nc(-c2ccc(C(F)(F)F)cc2)nc2c1CSCC2 [XAV-939] | 0
87 | NC(=O)Nc1cc(-c2cccc(F)c2)sc1C(=O)N[C@H]1CCCNC1 [AZD7762] | 0
88 | N.N.[Cl][Pt][Cl] [Cisplatin] | 0
89 | CN[C@@H]1C[C@H]2O[C@@](C)([C@@H]1OC)n1c3ccccc3c3c4c(c5c6ccccc6n2c5c31)C(=O)N[C@H]4O [UCN-01] | 9.11
90 | C[C@@H](Oc1cc(-c2cnn(C3CCNCC3)c2)cnc1N)c1c(Cl)ccc(F)c1Cl [Crizotinib] | 0
91 | CC1(C)NC(=O)N(c2ccc([N+](=O)[O-])c(C(F)(F)F)c2)C1=O [Nilutamide] | 0
92 | CNCc1ccc(-c2[nH]c3cc(F)cc4c3c2CCNC4=O)cc1 [Rucaparib] | 0
93 | C[C@]12CC[C@@H]3c4ccc(O)cc4C[C@@H](CCCCCCCCC[S+]([O-])CCCC(F)(F)C(F)(F)F)[C@H]3[C@@H]1CC[C@@H]2O (some centres undefined) [Fulvestrant] | 0
94 | CC(C)Cn1cnc2c(N)nc3ccccc3c21 [Imiquimod] | 0
